Results: patent US20130252930A1 (BIOMARIN PHARMACEUTICAL INC., priority 2010, published 2013)
Like-named read-outs stand apart in the source and are kept apart here.

Experiments:
Format in all cases: biochemical
[1] = target: T1, CYP17 (human testicular microsome) (Homo sapiens, UniProt P05093); test: CYP17 enzymatic assay (IC50) (Biological Example 4); conditions: human testicular microsome
T1 construct: using microsomal fraction from human testis (Celsis Cat #S00110) as the enzyme source; tissue Celsis S00110; host or cells: human testis microsomal fraction
T1 sequence (P05093 1-508): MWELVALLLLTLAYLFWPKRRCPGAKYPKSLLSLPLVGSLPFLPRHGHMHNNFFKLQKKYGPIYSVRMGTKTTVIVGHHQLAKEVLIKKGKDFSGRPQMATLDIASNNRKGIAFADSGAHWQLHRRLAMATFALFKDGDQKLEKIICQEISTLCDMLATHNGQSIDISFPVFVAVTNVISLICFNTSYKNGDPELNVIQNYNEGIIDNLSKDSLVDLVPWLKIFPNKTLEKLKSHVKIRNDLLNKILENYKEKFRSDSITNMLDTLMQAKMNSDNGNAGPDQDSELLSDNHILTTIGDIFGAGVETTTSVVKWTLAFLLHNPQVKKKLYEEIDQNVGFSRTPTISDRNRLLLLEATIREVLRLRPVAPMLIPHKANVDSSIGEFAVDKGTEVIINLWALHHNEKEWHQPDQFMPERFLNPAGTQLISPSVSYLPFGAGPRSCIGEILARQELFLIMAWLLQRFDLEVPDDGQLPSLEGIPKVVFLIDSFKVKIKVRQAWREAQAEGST

[2] = target: T1, CYP17 (human testicular microsome); test: CYP17 enzymatic assay (% inhibition at 10 nM), version 1 (Biological Example 5)
[3] = target: T1, CYP17 (human testicular microsome); test: CYP17 enzymatic assay (% inhibition at 1 nM) (Biological Example 12); conditions: compound at 1 nM, read-out: CYP17 enzymatic assay % inhibition at 1 nM (Biological Example No. 12)
[4] = DHEA by ELISA, read-out: Biological Example No. 4: CYP17 enzymatic assay IC50
[5] = 10 nM compound, DHEA by ELISA, read-out: Biological Example No. 5: CYP17 percent inhibition at 10 nM (version 1)
[6] = compound at 10 nM, read-out: CYP17 enzymatic assay % inhibition at 10 nM (Biological Example No. 5)

Row | SMILES | inhibition at 0.01 µM [2, 5] | further results
1 | CCCOc1cncc(C2=CC[C@H]3[C@@H]4CCN5C(=O)CCCC[C@]5(C)[C@H]4CC[C@]23C)c1 [Compound 42, (11aR,13aS)-11a,13a-dimethyl-1-(5-propoxypyridin-3-yl)-3b,4,5,8,9,10,11,11a,11b,12,13,13a-dodecahydro-3H-azepino[2,1-a]cyclopenta[f]isoquinolin-7(3aH)-one] | 50 to 80% | IC50 [1, 4]: < 0.011 µM
2 | C=Cc1cncc(C2=CC[C@H]3[C@@H]4CCN5C(=O)CCCC[C@]5(C)[C@H]4CC[C@]23C)c1 [Compound 43, (11aR,13aS)-11a,13a-dimethyl-1-(5-vinylpyridin-3-yl)-3b,4,5,8,9,10,11,11a,11b,12,13,13a-dodecahydro-3H-azepino[2,1-a]cyclopenta[f]isoquinolin-7(3aH)-one] | 50 to 80% | IC50 [1, 4]: < 0.011 µM
3 | COc1cncc(C2=CC[C@H]3[C@@H]4CCC5=CC(=O)NCC[C@]5(C)[C@H]4CC[C@]23C)c1 [Compound 53, (5aR,7aS)-8-(5-methoxypyridin-3-yl)-5a,7a-dimethyl-4,5,5a,5b,6,7,7a,8,9,10,10a,10b,11,12-tetradecahydrocyclopenta[5,6]naphtho[2,1-c]azepin-3(2H)-one] | 50 to 80% | IC50 [1, 4]: < 0.011 µM
4 | COc1cncc(C2=CC=C3[C@@H]4CC=C5C[C@@H](OC(C)=O)CC[C@]5(C)[C@H]4CC[C@]23C)c1 [Compound 80, (3S,10R,13S)-17-(5-methoxypyridin-3-yl)-10,13-dimethyl-2,3,4,7,8,9,10,11,12,13-decahydro-1H-cyclopenta[a]phenanthren-3-yl acetate] | > 80% | IC50 [1, 4]: < 0.011 µM
5 | Cc1cncc(C2=CC[C@H]3[C@@H]4CC[C@H]5CCOCC[C@]5(C)[C@H]4CC[C@]23C)c1 [Compound 126, 3-((5aS,5bS,7aS,10aS,10bR,12aS)-5a,7a-dimethyl-2,4,5,5a,5b,6,7,7a,10,10a,10b,11,12,12a-tetradecahydro-1H-cyclopenta[5,6]naphtho[1,2-d]oxepin-8-yl)-5-methylpyridine] | 50 to 80% | IC50 [1, 4]: < 0.011 µM
6 | CC(=O)O[C@H]1CC[C@@]2(C)[C@@H](CC[C@H]3C4=CC=C(n5ccnc5)[C@@]4(C)CC[C@@H]32)C1 [Compound 169, (5S,8R,9S,10S,13S)-17-(1H-imidazol-1-yl)-10,13-dimethyl-2,3,4,5,6,7,8,9,10,11,12,13-dodecahydro-1H-cyclopenta[a]phenanthren-3-yl acetate] | > 80% | IC50 [1, 4]: < 0.011 µM
7 | COC1C[C@H]2[C@@H]3CC=C(n4ccnc4)[C@@]3(C)CC[C@@H]2[C@@]2(C)CCC3CC312 (stereo partly drawn) [Compound 236, 1-((3aR,5aS)-10-methoxy-3a,5a-dimethyl-1,1a,2,3,3a,3b,4,5,5a,8,8a,8b,9,10-tetradecahydrocyclopenta[a]cyclopropa[2,3]cyclopenta[1,2-f]naphthalen-6-yl)-1H-imidazole] |  | IC50 ([1]; read-out: CYP17 enzymatic assay IC50 (Biological Example No. 4)): < 0.011 µM; inhibition at 0.01 µM [2, 6]: > 80%; inhibition at 0.001 µM [3]: 10 to 50%
8 | C[C@]12CC[C@H]3[C@@H](CC[C@H]4CNC(=O)CC[C@@]43C)C1=CC=C2n1ccnc1 [Compound 448, (5aR,5bS,7aS,10bR,12aR)-8-(1H-imidazol-1-yl)-5a,7a-dimethyl-1,2,5,5a,5b,6,7,7a,10b,11,12,12a-dodecahydrocyclopenta[5,6]naphtho[2,1-c]azepin-3(4H)-one] |  | inhibition at 0.01 µM [2, 6]: 50 to 80%
9 | COC1CC[C@@]2(C)[C@@H](CC[C@@H]3[C@@H]2CC[C@]2(C)C(c4cccnc4)=CC[C@@H]32)C1 (stereo partly drawn) [Compound 449, 3-((5S,8R,9S,10S,13S,14S)-3-methoxy-10,13-dimethyl-2,3,4,5,6,7,8,9,10,11,12,13,14,15-tetradecahydro-1H-cyclopenta[a]phenanthren-17-yl)pyridine] |  | inhibition at 0.01 µM [2, 6]: 1 to 50%
10 | COC1CC[C@@]2(C)[C@@H](CC[C@@H]3[C@@H]2CC[C@]2(C)C(c4cncc(C)c4)=CC[C@@H]32)C1 (stereo partly drawn) [Compound 450, 3-((5S,8R,9S,10S,13S,14S)-3-methoxy-10,13-dimethyl-2,3,4,5,6,7,8,9,10,11,12,13,14,15-tetradecahydro-1H-cyclopenta[a]phenanthren-17-yl)-5-methylpyridine] |  | inhibition at 0.01 µM [2, 6]: 1 to 50%
11 | COC1CC[C@@]2(C)[C@@H](CC[C@@H]3[C@@H]2CC[C@]2(C)C(n4ccnn4)=CC[C@@H]32)C1 (stereo partly drawn) [Compound 452, 1-((5S,8R,9S,10S,13S,14S)-3-methoxy-10,13-dimethyl-2,3,4,5,6,7,8,9,10,11,12,13,14,15-tetradecahydro-1H-cyclopenta[a]phenanthren-17-yl)-1H-1,2,3-triazole] |  | inhibition at 0.01 µM [2, 6]: 1 to 50%

Now from value to molecule, other results behind:

Row | inhibition at 0.01 µM [2, 5] | SMILES | further results
12 | 1 to 50% | C[C@]12CCC(=O)NC[C@@H]1CC[C@@H]1[C@@H]2CC[C@]2(C)C(n3ccnn3)=CC[C@@H]12 [Compound 138, (5aR,5bS,7aS,10aS,10bR,12aR)-5a,7a-dimethyl-8-(1H-1,2,3-triazol-1-yl)-1,2,5,5a,5b,6,7,7a,10,10a,10b,11,12,12a-tetradecahydrocyclopenta[5,6]naphtho[2,1-c]azepin-3(4H)-one] | 
13 | 1 to 50% | C[C@]12CCNCCC1CCC1C2CC[C@]2(C)C(n3ccnn3)=CCC12 (stereo partly drawn) [Compound 139, (5aS,7aS)-5a,7a-dimethyl-8-(1H-1,2,3-triazol-1-yl)-1,2,3,4,5,5a,5b,6,7,7a,10,10a,10b,11,12,12a-hexadecahydrocyclopenta[5,6]naphtho[1,2-d]azepine] | 
14 | 1 to 50% | C[C@]12CCCNCC1CCC1C2CC[C@]2(C)C(n3ccnn3)=CCC12 (stereo partly drawn) [Compound 140, (5aR,7aS)-5a,7a-dimethyl-8-(1H-1,2,3-triazol-1-yl)-1,2,3,4,5,5a,5b,6,7,7a,10,10a,10b,11,12,12a-hexadecahydrocyclopenta[5,6]naphtho[2,1-c]azepine] | 
15 | < 1% | CC(=O)N1CCC[C@@]2(C)[C@@H](CC[C@@H]3[C@@H]2CC[C@]2(C)C(n4ccnn4)=CC[C@@H]32)C1 [Compound 141, 1-((5aR,5bS,7aS,10aS,10bR,12aR)-5a,7a-dimethyl-8-(1H-1,2,3-triazol-1-yl)-3,4,5,5a,5b,6,7,7a,10,10a,10b,11,12,12a-tetradecahydrocyclopenta[5,6]naphtho[2,1-c]azepin-2(1H)-yl)ethanone] | 
16 | 1 to 50% | COc1cncc(C2=CC[C@H]3[C@@H]4CCC5=CCN(C)CC[C@]5(C)[C@H]4CC[C@]23C)c1 [Compound 148] | 
17 | 1 to 50% | CCCOc1cncc(C2=CC[C@H]3[C@@H]4CCC5=CCN(C)CC[C@]5(C)[C@H]4CC[C@]23C)c1 [Compound 149] | 
18 | 1 to 50% | CCc1cncc(C2=CC[C@H]3[C@@H]4CCC5=CCN(C)CC[C@]5(C)[C@H]4CC[C@]23C)c1 [Compound 150] | 
19 | 1 to 50% | CN1CC[C@@]2(C)C(=CC1=O)CC[C@@H]1[C@@H]2CC[C@]2(C)C(n3cnc4ccccc43)=CC[C@@H]12 [Compound 155] | 
20 | 50 to 80% | C[C@]12CC[C@H]3[C@@H](CC[C@H]4CNC(=O)CC[C@@]43C)C1=CC=C2c1cccnc1 [Compound 166, (5aR,5bS,7aS,10bR,12aR)-5a,7a-dimethyl-8-(pyridin-3-yl)-1,2,5,5a,5b,6,7,7a,10b,11,12,12a-dodecahydrocyclopenta[5,6]naphtho[2,1-c]azepin-3(4H)-one] | 
21 | 1 to 50% | C[C@]12CC[C@H]3[C@@H](CCC4CC(=O)NCC[C@@]43C)C1=CC=C2n1ccnn1 (stereo partly drawn) [Compound 178, (5aS,5bS,7aS,10bR)-5a,7a-dimethyl-8-(1H-1,2,3-triazol-1-yl)-3,4,5,5a,5b,6,7,7a,10b,11,12,12a-dodecahydrocyclopenta[5,6]naphtho[1,2-d]azepin-2(1H)-one] | 
22 | 1 to 50% | C[C@]12CC[C@H]3[C@@H](CCC4CNC(=O)CC[C@@]43C)C1=CC=C2n1ccnn1 (stereo partly drawn) [Compound 179, (5aR,5bS,7aS,10bR)-5a,7a-dimethyl-8-(1H-1,2,3-triazol-1-yl)-1,2,5,5a,5b,6,7,7a,10b,11,12,12a-dodecahydrocyclopenta[5,6]naphtho[2,1-c]azepin-3(4H)-one] | 
23 | 1 to 50% | Cc1cncc(C2=CC[C@H]3[C@@H]4CCC5N(C)C(=O)COC[C@]5(C)[C@H]4CC[C@]23C)c1 (stereo partly drawn) [Compound 445, (5aR,5bS,7aS,10aS,10bS)-1,5a,7a-trimethyl-8-(5-methylpyridin-3-yl)-5,5a,5b,6,7,7a,10,10a,10b,11,12,12a-dodecahydro-1H-cyclopenta[5,6]naphtho[2,1-e][1,4]oxazepin-2(3H)-one] | 
24 | 1 to 50% | Cc1cncc(C2=CCC3C4CCC5=CN(C)CCC[C@]5(C)C4CC[C@]23C)c1 (stereo partly drawn) [Compound 446, (5aR,7aS)-2,5a,7a-trimethyl-8-(5-methylpyridin-3-yl)-2,3,4,5,5a,5b,6,7,7a,10,10a,10b,11,12-tetradecahydrocyclopenta[5,6]naphtho[2,1-c]azepine] | 
